Key:
E. coli DH5α = test: Minimal inhibition concentration (MIC), E. coli DH5α; format: cell-based, Escherichia coli; details: pH 7.4
Description: (§1) Minimal inhibition concentration (MIC). Gram-negative bacteria, DH5α and MG1655 (E. coli) were grown in LB medium at 37° C. For determination of the MIC, polypeptides were dissolved in media using serial dilutions from a stock solution. Into each well of a 96-well plate was added 200 μL of each concentration and 2 μL of bacteria (1×10^8 CFU (colony forming units)) in medium. The plate was incubated at 37° C. The optical density readings of microorganism solutions were measured after 24 h incubation. The MIC was considered as the lowest concentration of peptide where no visual growth of bacteria was detected.

E. coli MG1655 = test: Minimal inhibition concentration (MIC), E. coli MG1655; format: cell-based, Escherichia coli; details: pH 7.4
Description: as §1

H. pylori SS1 [1] = test: H. pylori killing kinetics at various pHs (CFU counting, 1 h); format: cell-based, Helicobacter pylori
Description: H. pylori killing kinetics at various pHs. The killing kinetics of polypeptides were measured against H. pylori by counting the colony forming units (CFU) of alive bacteria with agar plating. The polypeptides at various concentrations were dissolved in the Tris-HC buffer at various pHs (pH 7.4, 4.0, 3.0). H. pylori were then collected and dispersed in the BB medium supplied with fresh urea (10 mM) and 10% FBS at different pHs (pH 7.4, 4.0, 3.0). The optical density at 600 nm of the bacteria were fixed at 0.1. The bacteria were then incubated with the polypeptides solution at corresponding pH in the incubator supplied with 10% CO2 at 37° C. Samples were taken for a series of ten-fold dilutions, and plated out in BB agar plates with 10% FBS and vancomycin (pH 7.4) after 1 h incubation. The plates were incubated for 72 h in the incubator and the bacteria were counted for CFU. Bacteria incubated with Tris-HCl buffer only at corresponding pH were served as 100% survival. Survival rate (%)=CFU of bacteria treated with polypeptides/CFU of bacteria treated with buffer×100%. The killing kinetics of antibiotics (OAC, omeprazole, amoxicillin, clarithromycin) against H. pylori were determined with a similar procedure. The antibiotics at various concentrations were dissolved in the Tris-HCl buffer at pH 7.4, or 3.0, and were then incubated with H. pylori in BB medium supplied with fresh urea (10 mM) and 10% FBS at corresponding pH in the incubator. After 1 h incubation, the bacteria were collected by centrifuge at 10,000 rcf for 5 min and washed with fresh BB medium. Samples were then taken for a series of ten-fold dilutions, and plated out in BB agar plates with 10% FBS and vancomycin. The plates were incubated for 72 h in the incubator and the bacteria were counted for CFU.

H. pylori SS1 [2] = test: Anti-H. pylori efficacy in vivo (infected C57BL/6J mice); set-up: species or system Helicobacter pylori; details: oral gavage once daily for 3 d, 2.6 μmol/kg
Description: Anti-H. pylori efficacy in vivo. […] For triple therapy, mice were first administered omeprazole (a proton pump inhibitor) through oral gavage at a dose of 400 μmol/kg, followed by a lag time of 30 min before administration of amoxicillin (68.0 μmol/kg) and clarithromycin (19.1 μmol/kg). PL2 and PDL2 in 5% (vol/vol) DMSO (both at 2.6 μmol/kg) were administered through oral gavage once daily for a consecutive 3 d. Water solution with 5% DMSO was served as negative control group. Forty-eight hours after the last administration, mice were killed and the stomach was removed from the abdominal cavity. The stomach was cut along the greater curvature, and the gastric content was removed and rinsed with PBS. The stomach sections were used for assessment of bacterial colonization. For bacterial colonization, a gastric tissue section was suspended in 1 mL PBS and homogenized for H. pylori recovery. The homogenate was serially diluted and spotted onto Columbia agar plate containing vancomycin (20 μg/mL), amphotericin (2 μg/mL), bacitracin (30 μg/mL) and nalidixic acid (10 μg/mL). The plates were then incubated at 37° C. under microaerobic conditions for 5 d, and bacterial colonies were enumerated and adjusted for dilutions.

[3] = Toxicity of PL2 in vivo after oral gavage; set-up: species or system mice; details: mouse
Source text: Toxicity of PL2 in vivo. […] Mice were sacrificed on day 5, and the blood samples were collected for the analysis of alanine aminotransferase (ALT), aspartate aminotransferase (AST), creatinine, urea nitrogen, sodium ion and potassium ion levels. The colonic segment, stomach, liver, small intestine, kidney and feces of each mouse was gathered and homogenized with cold PBS (pH7.4). The stomachs were used to determine the expression of caspase 3 and caspase 8 using Caspase 3 Assay Kit (Sigma) and Caspase 8/FLICE Colorimetric Kit (Life technology), respectively. The colonic segment and feces were used to extract bacterial DNA. The stomach, small intestine, liver, and kidney were kept in formalin for H&E staining. The stomachs were also kept in formalin for terminal deoxynucleotidyl transferase dUTP nick end labeling (TUNEL) assay (S7100|ApopTag® Peroxidase In Situ Apoptosis Detection Kit). […] The inflammation and injury of stomach were scored by Dr. Liu in a blind manner based on the H&E staining. Inflammation was graded on a 0-3 ordinal scale based on the Sydney System as follows: chronic inflammation (mononuclear cell infiltration independent of lymphoid follicles); grade 0, no inflammation; grade 1, mild inflammation (slight increase in mononuclear cells); grade 2, moderate inflammation (dense but focal mononuclear inflammatory cells); and grade 3, severe inflammation (dense and diffuse mononuclear inflammatory cells). The appearance of the mucosa was graded as follows: 0, normal; 1, spotty changes in cellular staining characteristics of some surface epithelial cells in an otherwise normal mucosa (mild injury); 2, more generalized changes and/or disruption of the surface epithelium in several areas (moderate injury); 3, extensive mucosal destruction (severe injury).

commensal bacteria = test: Killing effect against commensal bacteria in vivo (16S rRNA qPCR); details: mice, daily gavage for 3 consecutive days
Description: The bacterial load was determined by quantitative real-time PCR using a protocol modified from Stefka et al., and Buffie et al. (Stefka et al. (2014) Commensal bacteria protect against food allergen sensitization. Proc Natl Acad Sci USA 111:13145-13150; Buffie et al. (2012) Profound alterations of intestinal microbiota following a single dose of clindamycin results in sustained susceptibility to Clostridium difficile-induced colitis. Infect Immun 80:62-73). Fecal DNA was extracted as for sequencing, and bacterial load was quantified against a standard curve derived from apCR4TOPO-TA vector containing a nearly full-length copy of the 16S rRNA gene from a member of Porphyromonadaceae. Bacterial DNA was amplified with universal primers 8F and 338R using the iQ SYBR greensupermix (Bio-RadLifeScience) and the StepOne Plus system (AppliedBiosystems). The results were normalized to ileal content/fecal weight.

Substance: (PGA)18-r-(PHLG-MHH)20 [PL2]
- minimal inhibitory concentration (MIC) (E. coli DH5α): higher than 70 μM
- minimal inhibitory concentration (MIC) (E. coli MG1655): higher than 70 μM
- bactericidal activity against SS1 (H. pylori SS1 [1]; pH 3.0, 1 h incubation): higher bactericidal activity
- bactericidal activity against SS1 (H. pylori SS1 [1]; pH 4.0, 1 h incubation): notable bacteria killing
- bactericidal activity against SS1 (H. pylori SS1 [1]; pH 7.4, 1 h incubation): no bactericidal activity
- decrease of bacterial burden in the stomach as compared with the control group (H. pylori SS1 [2]): ~100 times
- ALT [3]: 37.3 ± 0.5 U/L
- AST [3]: 120.3 ± 17.9 U/L
- Creatinine [3]: 8.7 ± 0.9 µM
- Potassium ion [3]: 8.1 ± 0.2 mM
- Sodium ion [3]: 149.4 ± 1.6 mM
- Urea nitrogen [3]: 6.8 ± 0.6 mM
- histology of intestines, liver, and kidney (H&E staining) [3]: barely detectable histological abnormality
- killing of commensal bacteria in the feces (commensal bacteria): did not cause undesired killing of the commensal bacteria
- killing of commensal bacteria in the ileal contents (commensal bacteria): did not cause undesired killing of the commensal bacteria
